# In US8436039B2, “Inhibitors of the ATB(0,+) transporter and uses thereof” (Georgia Health Sciences University Research Institute, Inc., priority 2008, dated 2013):
# How the values were obtained:
# [1] = test system: MCF7, T-47D and ZR-75.1 cells; assay: Colony formation assay, malignant ATB^0,+-positive mammary epithelial cell lines; type: cell-based; settings: Homo sapiens, 288 h, 2.5 mM, 12 days, regular culture medium
# Protocol: (§1) The colony formation assay was performed as described previously (Thangaraju et al., 2006, Cancer Res. 66, 11560-11564). Mammary epithelial cells were seeded on to 6-well plates (10000 cells per well) in DMEM. After 24 hours, cells were exposed to varying concentrations of α-methyl-DL-tryptophan or 1-methyl-DL-tryptophan for 2 weeks, changing medium every 2 days. Cells were washed with PBS and fixed in 100% (v/v) methanol for 30 min followed by staining with KaryoMAX Giemsa stain for one hour. The wells were washed with water and dried overnight at room temperature. Finally, the dye in the wells was dissolved with 1% SDS in 0.2 M NaOH for one hour, and the attenuance of the released dye was measured at 630 nm.
# (§2) The present studies have identified α-methyl-DL-tryptophan as a blocker of ATB^0,+ and also have shown that the compound is able to block the transport of amino acids via ATB^0,+ under conditions that stimulate those in vivo in terms of amino acid concentrations. […] For this, we treated the human mammary epithelial cell lines with 2.5 mM α-methyl-DL-tryptophan in the presence of regular culture medium for 12 days in clonogenic assay and quantified the colony formation for each cell line in the presence and absence of α-methyl-DL-tryptophan (FIG. 8). […]
# MCF7 cells [2] = assay: Colony formation assay, dose-response in MCF7 cells; type: cell-based; settings: Homo sapiens, same assay conditions, read-out: IC50 for inhibition of colony formation
# Protocol: as §1, §2
# [3] = test system: HMEC, HBL100 and MCF10A cells; assay: Colony formation assay, non-malignant ATB^0,+-negative mammary epithelial cell lines; type: cell-based, human; settings: 2.5 mM, 12 days
# Protocol: as §1, §2
# [4] = test system: MDA-MB231, MDA-MB361 and MDA-MB453 cell lines; assay: Colony formation assay, malignant ATB^0,+-negative mammary epithelial cell lines; type: cell-based, human; settings: 2.5 mM, 12 days, no or very low ATB^0,+
# Protocol: as §1, §2
# MCF7 cells [5] = assay: Cell cycle analysis (FACS, propidium iodide) in MCF7 cells; type: cell-based, human; settings: 2.5 mM; 24 hours
# Protocol: (§3) MCF10A (an ATB^0,+-negative non-malignant cell line), MCF7 (an ATB^0,+-positive malignant cell line) and MDA-MB453 (an ATB^0,+-negative malignant cell line) cells were cultured in 6-well plates in a regular culture medium in the presence or absence of α-methyl-DL-tryptophan (2.5 mM) for 24, 48 and 72 hours. Cells were fixed in 50% (v/v) ethanol, treated with 0.1% sodium citrate, 1 mg/ml RNase A and 50 μg/ml propidium iodide, and subjected to FACS (Becton Dickinson FACSCalibur™) analysis. The amount of DNA in these cells, detected as chromosome content by propidium iodide binding, was used to identify cells in various stages of cell cycle: G1/G0, 2N; S, 2-4 N; G2/M, 4N (where N is the normal chromosome content).
# (§4) Since treatment with α-methyl-DL-tryptophan suppressed colony formation in malignant cell lines in an ATB^0,+-dependent manner, we investigated the influence of this treatment on cell cycle to determine which stage of the cycle is affected. We used three different cell lines in this experiment: MCF10A (non-malignant and ATB^0,+-negative), MCF7 (malignant and ATB^0,+-positive) and MDA-MB453 (malignant and ATB^0,+-negative) (FIG. 9). […] In contrast, the treatment affected the cell cycle progression in the ATB^0,+-positive MCF7 cell line. The cells were arrested at G1/G0 stage to a significant extent when treated with α-methyl-DL-tryptophan. […]
# [6] = test system: MCF10A and MDA-MB453 cell lines; assay: Cell cycle analysis (FACS, propidium iodide) in ATB^0,+-negative cell lines; type: cell-based, human; settings: 2.5 mM; 24, 48 and 72 hours
# Protocol: as §3, §4
# [7] = mice; 2 mg/ml in drinking water; cited from earlier work
Compound,inhibition at 2500 µM [1] [%],IC50 (MCF7 cells [2]) [µM],effect on ability to form colonies [3],effect on colony formation [4],percentage of MCF7 cells in G1/G0-phase (MCF7 cells [5]) [percentage],percentage of MCF7 cells in S-phase (MCF7 cells [5]) [percentage],effect on cell cycle [6],plasma levels [7] [µM]
CC(N)(Cc1c[nH]c2ccccc12)C(=O)O (racemic) [α-methyl-DL-tryptophan],60 to 75,160 ± 15,no effect,little or no effect,82±1,3±1,no effect on cell cycle,–
Cn1cc(C[C@@H](N)C(=O)O)c2ccccc21 [1-methyl-D-tryptophan],–,–,–,–,–,–,–,35 to 40
